Experimental data as given in paper PMC12888861, “Antibacterial activity of enmetazobactam against Acinetobacter spp.: a molecular dissection of mechanism of action and resistance determinants” (Antimicrobial Agents and Chemotherapy, 2025).

Experiments:
[1] = system: carbapenem-susceptible A. baumannii isolates (n = 54); assay: MIC, broth microdilution (EUCAST), carbapenem-susceptible A. baumannii isolates; assay type: cell-based, Acinetobacter baumannii; settings: for MIC: in combinations ETZ fixed at 8 mg/L
From the text: (§1) The bacterial strains used in this study comprised 208 clinical isolates from the Spanish National Acinetobacter spp. 2020 Multicenter Collection, which was previously characterized in detail by our research group, including whole-genome sequencing, phylogenetics studies, clonal dynamics, and resistance mechanisms ([2], [29]). Additionally, a collection of A. baumannii ATCC 17978 transformants coding the blaOXA-23, blaOXA-24/40, blaOXA-51, blaOXA-58, blaOXA-143, and blaOXA-201 genes, previously constructed and described by our group ([30]), was used to determine the activity of enmetazobactam against strains carrying the main CHDLs of A. baumannii.
(§2) The antimicrobial susceptibility of the 208 Acinetobacter spp. isolates was assessed using the broth microdilution method, as described in the European Committee on Antimicrobial Susceptibility Testing (EUCAST) v.15 guidelines (http://www.eucast.org/clinical_breakpoints). […] MICs for enmetazobactam alone were assessed as well. […] Subsequently, MIC testing was also conducted with a collection of A. baumannii ATCC 17978 transformants expressing clinically relevant OXA-like carbapenemase genes.
(§3) The A. baumannii ATCC 19606 strain was used as the reference strain in all susceptibility experiments, in duplicate assays. Antibiotics were purchased from Sigma-Aldrich, except enmetazobactam and durlobactam, which were obtained from Advanz Pharma and MedChemExpress, respectively.

[2] = system: carbapenem-resistant A. baumannii (CRAB) isolates (n = 67); assay: MIC, broth microdilution (EUCAST), carbapenem-resistant A. baumannii isolates; assay type: cell-based, Acinetobacter baumannii; settings: ETZ fixed 8 mg/L in combinations; for MIC: Acinetobacter baumannii
From the text: as §1, §2, §3

[3] = Acinetobacter baumannii, carbapenem-susceptible A. baumannii isolates (n = 54), ETZ fixed 8 mg/L in combinations

C[C@@H](O)[C@H]1C(=O)N2C(C(=O)O)=C(SCCN=CN)C[C@H]12 [imipenem]
32 µg/mL: MIC ([2]; isolate Ab83, ST 25, ADC-5, OXA-64, OXA-23) | MIC ([2]; isolate Ab137, ST 85, ADC-2, OXA-94, OXA-23) | MIC ([2]; isolate Ab138, ST 745, ADC-30, OXA-66, OXA-58) | MIC ([2]; isolate Ab140, ST 85, ADC-2, OXA-94, OXA-23) | MIC ([2]; isolate Ab144, ST 745, ADC-30, OXA-66, OXA-58) | MIC ([2]; isolate Ab169, ST 2, ADC-30, OXA-66, OXA-23) | MIC ([2]; isolate Ab173, ST 2, ISAba1-ADC-30, OXA-66, OXA-23) | MIC ([2]; isolate Ab179, ST 2, ADC-30, OXA-66, OXA-23) | MIC ([2]; isolate Ab181, ST 2, ADC-30, OXA-66, OXA-23) | MIC ([2]; isolate Ab184, ST 2, ADC-30, OXA-66, OXA-23) | MIC ([2]; isolate Ab186, ST 2, ADC-30, OXA-66, OXA-23) | MIC ([2]; isolate Ab194, ST 2, ADC-30, OXA-66, OXA-23) | MIC ([2]; isolate Ab199, ST 2, ADC-30, OXA-66, OXA-23) | MIC ([2]; isolate Ab201, ST 2, ADC-30, OXA-66, OXA-23)
98.1: MIC distribution 0.25 ([1]; cumulative share of carbapenem-susceptible A. baumannii isolates (n = 54) at MIC 0.25 mg/L, ETZ fixed 8 mg/L in combinations) | MIC distribution 0.5 ([1]; cumulative share of carbapenem-susceptible A. baumannii isolates (n = 54) at MIC 0.5 mg/L, ETZ fixed 8 mg/L in combinations)
0.12 µg/mL: MIC ([1]; Acinetobacter baumannii, isolate Ab1, ST 164, ADC-6, OXA-91) | MIC ([1]; Acinetobacter baumannii, isolate Ab11, ST 239, ADC-2, OXA-51) | MIC ([1]; Acinetobacter baumannii, isolate Ab61, ST 1639, ADC-7, OXA-64) | MIC ([1]; Acinetobacter baumannii, isolate Ab79, ST 106, ADC-11, OXA-78) | MIC ([1]; Acinetobacter baumannii, isolate Ab80, ST 2182, ADC-6, OXA-208) | MIC ([1]; Acinetobacter baumannii, isolate Ab81, ST 25, ADC-79, OXA-64) | MIC ([1]; Acinetobacter baumannii, isolate Ab93, ST 25, ADC-79, OXA-64) | MIC ([1]; Acinetobacter baumannii, isolate Ab95, ST 582, ADC-5, OXA-317) | MIC ([1]; Acinetobacter baumannii, isolate Ab96, ST 582, ADC-5, OXA-317) | MIC ([1]; Acinetobacter baumannii, isolate Ab100, ST 145, ADC-58, OXA-343) | MIC ([1]; Acinetobacter baumannii, isolate Ab112, ST 193, ADC-like, OXA-120) | MIC ([1]; Acinetobacter baumannii, isolate Ab124, ST 2176, ADC-2, OXA-64) | MIC ([1]; Acinetobacter baumannii, isolate Ab127, ST 2176, ADC-2, OXA-64) | MIC ([1]; Acinetobacter baumannii, isolate Ab128, ST 2176, ADC-2, OXA-64) | MIC ([1]; Acinetobacter baumannii, isolate Ab130, ST 32, ADC-79, OXA-100) | MIC ([1]; Acinetobacter baumannii, isolate Ab131, ST 687, ADC-like, OXA-208) | MIC ([1]; Acinetobacter baumannii, isolate Ab132, ST 1112, ADC-79, OXA-89) | MIC ([1]; Acinetobacter baumannii, isolate Ab136, ST 2183, ADC-like, OXA-66) | MIC ([1]; Acinetobacter baumannii, isolate Ab143, ST 1328, ADC-76, OXA-408) | MIC ([1]; Acinetobacter baumannii, isolate Ab167, ST 1623, ADC-like, OXA-345) | MIC ([1]; Acinetobacter baumannii, isolate Ab170, ST 2110, ADC-4, OXA-338) | MIC ([1]; Acinetobacter baumannii, isolate Ab188, ST 203, ADC-6, OXA-217, PDC-1) | MIC ([1]; Acinetobacter baumannii, isolate Ab195, ST 1, ADC-11, OXA-69) | MIC ([1]; Acinetobacter baumannii, isolate Ab200, ST 1336, ADC-2, OXA-51) | MIC ([1]; Acinetobacter baumannii, isolate Ab202, ST 1, ADC-11, OXA-69) | MIC ([1]; Acinetobacter baumannii, isolate Ab203, ST 221, ADC-6, OXA-88) | MIC ([1]; Acinetobacter baumannii, isolate Ab213) | MIC50 [1, 3]
34.3: MIC distribution 16 ([2]; cumulative share of CRAB isolates (n = 67) at MIC 16 mg/L)
≤ 0.06 µg/mL: MIC ([1]; Acinetobacter baumannii, isolate Ab158, ST 2034, ADC-2, OXA-217) | MIC ([1]; Acinetobacter baumannii, isolate Ab163, ST 132, ADC-2, OXA-120) | MIC ([1]; Acinetobacter baumannii, isolate Ab172, ST 2185, ADC-5, OXA-217) | MIC ([1]; Acinetobacter baumannii, isolate Ab187, ST 105, ADC-2, OXA-430) | MIC ([1]; Acinetobacter baumannii, isolate Ab189, ST 1405, ADC-3, OXA-120) | MIC ([1]; Acinetobacter baumannii, isolate Ab193, ST 164, ADC-6, OXA-91)
100: MIC distribution 1 ([1]; cumulative share of carbapenem-susceptible A. baumannii isolates (n = 54) at MIC 1 mg/L, ETZ fixed 8 mg/L in combinations) | MIC distribution 2 ([1]; cumulative share of carbapenem-susceptible A. baumannii isolates (n = 54) at MIC 2 mg/L, ETZ fixed 8 mg/L in combinations) | MIC distribution 4 ([1]; cumulative share of carbapenem-susceptible A. baumannii isolates (n = 54) at MIC 4 mg/L, ETZ fixed 8 mg/L in combinations) | MIC distribution 8 ([1]; cumulative share of carbapenem-susceptible A. baumannii isolates (n = 54) at MIC 8 mg/L, ETZ fixed 8 mg/L in combinations) | MIC distribution 16 ([1]; cumulative share of carbapenem-susceptible A. baumannii isolates (n = 54) at MIC 16 mg/L, ETZ fixed 8 mg/L in combinations) | MIC distribution ≥32 ([1]; cumulative share of carbapenem-susceptible A. baumannii isolates (n = 54) at MIC ≥32 mg/L, ETZ fixed 8 mg/L in combinations) | MIC distribution 64 ([2]; cumulative share of CRAB isolates (n = 67) at MIC 64 mg/L)
61.1: MIC distribution 0.12 [1]
64 µg/mL: MIC ([2]; isolate Ab174, ST 2, ADC-30, OXA-66, OXA-23) | MIC ([2]; isolate Ab180, ST 2, ADC-30, OXA-66, OXA-24/40) | MIC ([2]; isolate Ab191, ST 2, ADC-30, OXA-66, OXA-23) | MIC ([2]; isolate Ab192, ST 2, ADC-30, OXA-66, OXA-23)
11.1: MIC distribution ≤0.06 ([1]; cumulative share of carbapenem-susceptible A. baumannii isolates (n = 54) at MIC ≤0.06 mg/L, ETZ fixed 8 mg/L in combinations)
79.1: MIC distribution 32 ([2]; cumulative share of CRAB isolates (n = 67) at MIC 32 mg/L)
0: MIC distribution 0.12 ([2]; cumulative share of CRAB isolates (n = 67) at MIC 0.12 mg/L) | MIC distribution 0.25 ([2]; cumulative share of CRAB isolates (n = 67) at MIC 0.25 mg/L) | MIC distribution 0.5 ([2]; cumulative share of CRAB isolates (n = 67) at MIC 0.5 mg/L) | MIC distribution 1 ([2]; cumulative share of CRAB isolates (n = 67) at MIC 1 mg/L) | MIC distribution 2 ([2]; cumulative share of CRAB isolates (n = 67) at MIC 2 mg/L) | MIC distribution 4 ([2]; cumulative share of CRAB isolates (n = 67) at MIC 4 mg/L) | MIC distribution ≤0.06 ([2]; cumulative share of CRAB isolates (n = 67) at MIC ≤0.06 mg/L)
0.25 µg/mL: MIC ([1]; Acinetobacter baumannii, isolate Ab34, ST 2182, ADC-2, OXA-130) | MIC ([1]; Acinetobacter baumannii, isolate Ab38, ST 866, ADC-2, OXA-385) | MIC ([1]; Acinetobacter baumannii, isolate Ab40, ST 2176, ADC-2, OXA-64) | MIC ([1]; Acinetobacter baumannii, isolate Ab50, ST 2176, ADC-2, OXA-64) | MIC ([1]; Acinetobacter baumannii, isolate Ab57, ST 1470, ADC-58, OXA-106) | MIC ([1]; Acinetobacter baumannii, isolate Ab58, ST 6, ADC-2, OXA-94) | MIC ([1]; Acinetobacter baumannii, isolate Ab62, ST 265, ADC-2, OXA-91) | MIC ([1]; Acinetobacter baumannii, isolate Ab67, ST 1, ADC-11, OXA-69) | MIC ([1]; Acinetobacter baumannii, isolate Ab110, ST 1623, ADC-3, OXA-70) | MIC ([1]; Acinetobacter baumannii, isolate Ab139, ST 54, ADC-like, OXA-365) | MIC ([1]; Acinetobacter baumannii, isolate Ab149, ST 1112, ADC-6, OXA-407) | MIC ([1]; Acinetobacter baumannii, isolate Ab150, ST 2184, ADC-like, OXA-64) | MIC ([1]; Acinetobacter baumannii, isolate Ab152, ST 132, ADC-2, OXA-120) | MIC ([1]; Acinetobacter baumannii, isolate Ab168, ST 1470, ADC-75, OXA-402) | MIC ([1]; Acinetobacter baumannii, isolate Ab185, ST 2, ADC-26, OXA-66) | MIC ([1]; Acinetobacter baumannii, isolate Ab190, ST 2186, ADC-6, OXA-413) | MIC ([1]; Acinetobacter baumannii, isolate Ab206, ST 2187, ADC-58, OXA-69) | MIC ([1]; Acinetobacter baumannii, isolate Ab209) | MIC ([1]; Acinetobacter baumannii, isolate Ab218) | MIC ([1]; Acinetobacter baumannii, isolate Ab220) | MIC90 [1, 3]
9.0: MIC distribution 8 ([2]; cumulative share of CRAB isolates (n = 67) at MIC 8 mg/L)
16 µg/mL: MIC ([2]; isolate Ab56, ST 1, ADC-75, OXA-69, OXA-23) | MIC ([2]; isolate Ab109, ST 1, ADC-75, OXA-69, OXA-23) | MIC ([2]; isolate Ab133, ST 2, ADC-30, OXA-66, OXA-58, TEM-12) | MIC ([2]; isolate Ab134, ST 2, ADC-30, OXA-66, OXA-58, TEM-12) | MIC ([2]; isolate Ab141, ST 745, ADC-30, OXA-66, OXA-58) | MIC ([2]; isolate Ab171, ST 2, ADC-30, OXA-66, OXA-23) | MIC ([2]; isolate Ab182, ST 2, ADC-30, OXA-66, OXA-23) | MIC ([2]; isolate Ab183, ST 2, ADC-30, OXA-66, OXA-23) | MIC ([2]; isolate Ab204, ST 2, ADC-30, OXA-66, OXA-23)
1 µg/mL: MIC ([1]; Acinetobacter baumannii, isolate Ab142, ST 1, ADC-like, OXA-69)
